From PubChem BioAssay (NCI)
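Briefly, cells in 96-well plates were exposed to five compound concentrations for 48 h, and endpoints were estimated by linear interpolation. Here, GI50 denotes the concentration required for 50% inhibition of growth. At the TGI there is no net growth.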

What was measured:
Experiment in all cases: NCI-60 cell line screen, 48 h
786-0 renal = tested on: 786-0 renal
A498 renal = tested on: A498 renal
A549 NSCLC = tested on: A549 NSCLC
ACHN renal = tested on: ACHN renal
BT-549 breast = tested on: BT-549 breast
CAKI-1 renal = tested on: CAKI-1 renal
CCRF-CEM leukemia = tested on: CCRF-CEM leukemia
COLO 205 colon = tested on: COLO 205 colon
DU-145 prostate = tested on: DU-145 prostate
EKVX NSCLC = tested on: EKVX NSCLC
HCT-116 colon = tested on: HCT-116 colon
HCT-15 colon = tested on: HCT-15 colon
HL-60(TB) leukemia = tested on: HL-60(TB) leukemia
HOP-62 NSCLC = tested on: HOP-62 NSCLC
HOP-92 NSCLC = tested on: HOP-92 NSCLC
HS 578T breast = tested on: HS 578T breast
HT29 colon = tested on: HT29 colon
IGROV1 ovarian = tested on: IGROV1 ovarian
K-562 leukemia = tested on: K-562 leukemia
KM12 colon = tested on: KM12 colon
LOX IMVI melanoma = tested on: LOX IMVI melanoma
M14 melanoma = tested on: M14 melanoma
MALME-3M melanoma = tested on: MALME-3M melanoma
MCF7 breast = tested on: MCF7 breast
MDA-MB-231 breast = tested on: MDA-MB-231 breast
MDA-MB-435 = tested on: MDA-MB-435
NCI-H226 lung = tested on: NCI-H226 lung
NCI-H23 lung = tested on: NCI-H23 lung
NCI-H460 lung = tested on: NCI-H460 lung
NCI-H522 lung = tested on: NCI-H522 lung
NCI/ADR-RES ovarian = tested on: NCI/ADR-RES ovarian
OVCAR-3 ovarian = tested on: OVCAR-3 ovarian
OVCAR-4 ovarian = tested on: OVCAR-4 ovarian
OVCAR-5 ovarian = tested on: OVCAR-5 ovarian
OVCAR-8 ovarian = tested on: OVCAR-8 ovarian
PC-3 prostate = tested on: PC-3 prostate
RPMI-8226 leukemia = tested on: RPMI-8226 leukemia
RXF 393 renal = tested on: RXF 393 renal
SF-268 CNS = tested on: SF-268 CNS
SF-295 CNS = tested on: SF-295 CNS
SF-539 CNS = tested on: SF-539 CNS
SK-MEL-2 melanoma = tested on: SK-MEL-2 melanoma
SK-MEL-28 melanoma = tested on: SK-MEL-28 melanoma
SK-MEL-5 melanoma = tested on: SK-MEL-5 melanoma
SK-OV-3 ovarian = tested on: SK-OV-3 ovarian
SN12C renal = tested on: SN12C renal
SNB-19 CNS = tested on: SNB-19 CNS
SNB-75 CNS = tested on: SNB-75 CNS
SR leukemia = tested on: SR leukemia
SW-620 colon = tested on: SW-620 colon
TK-10 renal = tested on: TK-10 renal
U251 CNS = tested on: U251 CNS
UACC-257 melanoma = tested on: UACC-257 melanoma
UACC-62 melanoma = tested on: UACC-62 melanoma

Structure (SMILES): O=S(=O)(Nc1ccc(-c2nc(-c3cccc(O)c3)c(-c3ccnc(Br)c3)[nH]2)cc1)c1ccccc1
- GI50 (786-0 renal): 2.51 µM
- TGI (786-0 renal): 7.48 µM
- GI50 (A498 renal): 0.364 µM
- TGI (A498 renal): 3.67 µM
- GI50 (A549 NSCLC): 3 µM
- TGI (A549 NSCLC): 33.1 µM
- GI50 (ACHN renal): 2.55 µM
- TGI (ACHN renal): 6.96 µM
- GI50 (BT-549 breast): 2.49 µM
- TGI (BT-549 breast): 6.76 µM
- GI50 (CAKI-1 renal): 2.15 µM
- TGI (CAKI-1 renal): 7.51 µM
- GI50 (CCRF-CEM leukemia): 1.91 µM
- TGI (CCRF-CEM leukemia): > 100 µM
- GI50 (COLO 205 colon): 2.42 µM
- TGI (COLO 205 colon): 6.81 µM
- GI50 (DU-145 prostate): 3.24 µM
- TGI (DU-145 prostate): 10.9 µM
- GI50 (EKVX NSCLC): 2.55 µM
- TGI (EKVX NSCLC): 8.09 µM
- GI50 (HCT-116 colon): 2.43 µM
- TGI (HCT-116 colon): 7.16 µM
- GI50 (HCT-15 colon): 1.97 µM
- TGI (HCT-15 colon): 4.76 µM
- GI50 (HL-60(TB) leukemia): 2.44 µM
- TGI (HL-60(TB) leukemia): 6.46 µM
- GI50 (HOP-62 NSCLC): 2.42 µM
- TGI (HOP-62 NSCLC): 6.43 µM
- GI50 (HOP-92 NSCLC): 1.69 µM
- TGI (HOP-92 NSCLC): 4.9 µM
- GI50 (HS 578T breast): 1.5 µM
- TGI (HS 578T breast): 4.39 µM
- GI50 (HT29 colon): 3.17 µM
- TGI (HT29 colon): 18.3 µM
- GI50 (IGROV1 ovarian): 2.88 µM
- TGI (IGROV1 ovarian): 11.3 µM
- GI50 (K-562 leukemia): 2.27 µM
- TGI (K-562 leukemia): > 100 µM
- GI50 (KM12 colon): 2.32 µM
- TGI (KM12 colon): 5.99 µM
- GI50 (LOX IMVI melanoma): 1.74 µM
- TGI (LOX IMVI melanoma): 3.29 µM
- GI50 (M14 melanoma): 2.5 µM
- TGI (M14 melanoma): 8.55 µM
- GI50 (MALME-3M melanoma): 2.1 µM
- TGI (MALME-3M melanoma): 6.89 µM
- GI50 (MCF7 breast): 2.3 µM
- TGI (MCF7 breast): 7.3 µM
- GI50 (MDA-MB-231 breast): 2.71 µM
- TGI (MDA-MB-231 breast): 11.7 µM
- GI50 (MDA-MB-435): 2.2 µM
- TGI (MDA-MB-435): 6.54 µM
- GI50 (NCI-H226 lung): 2.25 µM
- TGI (NCI-H226 lung): 7.27 µM
- GI50 (NCI-H23 lung): 2.18 µM
- TGI (NCI-H23 lung): 6.11 µM
- GI50 (NCI-H460 lung): 2.14 µM
- TGI (NCI-H460 lung): 4.71 µM
- GI50 (NCI-H522 lung): 2.48 µM
- TGI (NCI-H522 lung): 9.95 µM
- GI50 (NCI/ADR-RES ovarian): 3.04 µM
- TGI (NCI/ADR-RES ovarian): 32 µM
- GI50 (OVCAR-3 ovarian): 2.07 µM
- TGI (OVCAR-3 ovarian): 4.82 µM
- GI50 (OVCAR-4 ovarian): 3.09 µM
- TGI (OVCAR-4 ovarian): 15.1 µM
- GI50 (OVCAR-5 ovarian): 4.34 µM
- TGI (OVCAR-5 ovarian): 22.7 µM
- GI50 (OVCAR-8 ovarian): 2.84 µM
- TGI (OVCAR-8 ovarian): 9.74 µM
- GI50 (PC-3 prostate): 2.12 µM
- TGI (PC-3 prostate): 6.82 µM
- GI50 (RPMI-8226 leukemia): 2.35 µM
- TGI (RPMI-8226 leukemia): 6.63 µM
- GI50 (RXF 393 renal): 1.93 µM
- TGI (RXF 393 renal): 4.36 µM
- GI50 (SF-268 CNS): 3.18 µM
- TGI (SF-268 CNS): 13.7 µM
- GI50 (SF-295 CNS): 1.9 µM
- TGI (SF-295 CNS): 4.25 µM
- GI50 (SF-539 CNS): 2.01 µM
- TGI (SF-539 CNS): 4.75 µM
- GI50 (SK-MEL-2 melanoma): 2.41 µM
- TGI (SK-MEL-2 melanoma): 6.21 µM
- GI50 (SK-MEL-28 melanoma): 2.86 µM
- TGI (SK-MEL-28 melanoma): 9.36 µM
- GI50 (SK-MEL-5 melanoma): 2.4 µM
- TGI (SK-MEL-5 melanoma): 5.82 µM
- GI50 (SK-OV-3 ovarian): 2.76 µM
- TGI (SK-OV-3 ovarian): 7.34 µM
- GI50 (SN12C renal): 2.91 µM
- TGI (SN12C renal): 13.2 µM
- GI50 (SNB-19 CNS): 3.32 µM
- TGI (SNB-19 CNS): 15.5 µM
- GI50 (SNB-75 CNS): 1.3 µM
- TGI (SNB-75 CNS): 7.18 µM
- GI50 (SR leukemia): 2.29 µM
- TGI (SR leukemia): > 100 µM
- GI50 (SW-620 colon): 2.84 µM
- TGI (SW-620 colon): 10.6 µM
- GI50 (TK-10 renal): 3.04 µM
- TGI (TK-10 renal): 9.95 µM
- GI50 (U251 CNS): 2.71 µM
- TGI (U251 CNS): 10.8 µM
- GI50 (UACC-257 melanoma): 2.53 µM
- TGI (UACC-257 melanoma): 7.15 µM
- GI50 (UACC-62 melanoma): 1.91 µM
- TGI (UACC-62 melanoma): 4.97 µM
